Reference: PubChem BioAssay AID1259333 (Broad Institute, 2017)
“And” between values parts separate entries of the source, which are not always exact repeats. Equal values may be shown once. The source made the active and inactive calls. No rule for the calls is given here; tested in parental BL2 cells.

Assay: loss of cell viability by ATP content – CellTiter-Glo, cytotoxicity control, dose response (AID 1259333);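 also: 0% = vehicle neutral controls and -100% = reference inhibitor positive controls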
Details: cytotoxicity, CellTiter-Glo ATP luminescence; at 3.5 µM (top of the series)

Which activity change, negative = cytotoxicity does the source give for `Cc1ccccc1NC(=O)c1nc(S(C)(=O)=O)ncc1Cl` here?
Its activity change, negative = cytotoxicity is 64.5% (inactive).

Same assay, conditions: cytotoxicity, CellTiter-Glo ATP luminescence; at 10 µM (top of the series)

For `O=C(COc1cccnc1[N+](=O)[O-])c1ccc(Cl)s1`, which activity change, negative = cytotoxicity is on record?
Its activity change, negative = cytotoxicity is 33.6% (inactive).

For `CC(=O)NC12CC3CC(C1)CC(C(=O)OCC(=O)c1ccc4c(c1)OCCO4)(C3)C2`, which activity change, negative = cytotoxicity is on record?
Its activity change, negative = cytotoxicity is 20.6% (inactive).

For `CC(=O)Nc1ccc(S(=O)(=O)c2ccc(N)cc2)cc1`, which activity change, negative = cytotoxicity is on record?
Its activity change, negative = cytotoxicity is 13.9% (inactive).

With `COc1ccc(S(=O)(=O)N(C)C[C@@H]2Oc3ccc(NC(=O)Nc4ccc(C(F)(F)F)cc4)cc3C(=O)N([C@@H](C)CO)C[C@@H]2C)cc1` as the compound, how does the activity change, negative = cytotoxicity read?
The activity change, negative = cytotoxicity was 84.5% (inactive).

Which activity change, negative = cytotoxicity does the source give for `Cc1ccccc1S(=O)(=O)N1C[C@@H]2N[C@H](C1)C2c1ccc(-c2cccc(C#N)c2)cc1` (stereo partly specified) here?
Its activity change, negative = cytotoxicity is 54.5% (inactive).

With `O=C(Nc1nnc(C2CC2)s1)C1CC(=O)N(c2ccc3c(c2)OCCO3)C1` (stereo unspecified) as the compound, how does the activity change, negative = cytotoxicity read?
The activity change, negative = cytotoxicity was 52.3% (inactive).

Which activity change, negative = cytotoxicity does the source give for `CC(C)(C)n1cc(C(=O)c2ccc3ccccc3c2O)cn1` here?
The activity change, negative = cytotoxicity was 24.3% (inactive).

Which activity change, negative = cytotoxicity does the source give for `O=C(c1ccc(F)cc1)N1C[C@@H]2N[C@H](C1)C2c1ccc(/C=C/c2ccccc2)cc1` (stereo partly specified) here?
The activity change, negative = cytotoxicity was 12.7% (inactive) and 35.5% (inactive).

With `Cc1noc(C)c1S(=O)(=O)Nc1ccc2c(c1)C(=O)N([C@@H](C)CO)C[C@@H](C)[C@@H](CN(C)C(=O)Nc1cccc3ccccc13)OCCCC[C@H](C)O2` as the compound, how does the activity change, negative = cytotoxicity read?
The activity change, negative = cytotoxicity was 25.9% (inactive).

With `O=C1CCCCC1Sc1nnc(-c2ccc3c(c2)OCO3)o1` (stereo unspecified) as the compound, how does the activity change, negative = cytotoxicity read?
The activity change, negative = cytotoxicity was 25.1% (inactive).

Which activity change, negative = cytotoxicity does the source give for `CCc1csc(N2[C@H](C#N)[C@H](c3ccc(C#Cc4ccc(F)cc4)cc3)[C@H]2CO)n1` here?
The activity change, negative = cytotoxicity was 30% (inactive).

With `CCCCc1nc2ccccc2[nH]1` as the compound, how does the activity change, negative = cytotoxicity read?
Its activity change, negative = cytotoxicity is 13.9% (inactive).

Which activity change, negative = cytotoxicity does the source give for `O=C(C[C@@H]1C[C@H]2c3cc(NC(=O)Nc4ccc(C(F)(F)F)cc4)ccc3O[C@H]2[C@H](CO)O1)NCc1cc(F)ccc1F` here?
The activity change, negative = cytotoxicity was 31.2% (inactive).

Which activity change, negative = cytotoxicity does the source give for `Cc1ccc(C2(C)NC(=O)N(CC(=O)Nc3cccnc3Cl)C2=O)cc1` (stereo unspecified) here?
The activity change, negative = cytotoxicity was 21.9% (inactive).

With `Oc1cc(O)cc(/C=C/c2ccc(O)c(O)c2)c1` as the compound, how does the activity change, negative = cytotoxicity read?
Its activity change, negative = cytotoxicity is 129% (inactive).

For `CC(C)Cc1ccc(C(C)/C=C2/CCC(CN3CCCCC3)C2=O)cc1` (stereo unspecified), which activity change, negative = cytotoxicity is on record?
Its activity change, negative = cytotoxicity is 26.2% (inactive).

Which activity change, negative = cytotoxicity does the source give for `CCOc1ncccc1C(=O)OC(C)C(=O)Nc1ccc(Cl)cn1` (stereo unspecified) here?
Its activity change, negative = cytotoxicity is 24.8% (inactive).

For `Cc1ccc(-c2ccccc2[C@H]2[C@@H](C#N)N(c3ncc(-c4ccccc4)s3)[C@@H]2CO)cc1`, which activity change, negative = cytotoxicity is on record?
Its activity change, negative = cytotoxicity is 47.4% (inactive).

For `CC1(C)C(=O)C=C[C@@]2(C)C1C(=O)C(=O)[C@]1(C)C2CC[C@@]2(C)[C@H](c3ccoc3)C[C@H]3O[C@]321` (stereo partly specified), which activity change, negative = cytotoxicity is on record?
The activity change, negative = cytotoxicity was 161% (inactive).

For `CC(=NNc1ccc2ccccc2n1)c1ccccc1O`, which activity change, negative = cytotoxicity is on record?
Its activity change, negative = cytotoxicity is -29.4% (inactive).
